Results on 23 molecules are retold here after ChEMBL document CHEMBL4257475, “Identification of non-substrate-like glycosyltransferase inhibitors from library screening: pitfalls & hits” (Medchemcomm, 2018).

Molecules are shown by their SMILES. The source made the active and inactive calls. No cut-off for these calls is given here. Some results are limits rather than exact numbers.

Experiment [1] has as its target T1, LgtC (Neisseria meningitidis) (UniProt Q93EK7).
T1 sequence (whole entry): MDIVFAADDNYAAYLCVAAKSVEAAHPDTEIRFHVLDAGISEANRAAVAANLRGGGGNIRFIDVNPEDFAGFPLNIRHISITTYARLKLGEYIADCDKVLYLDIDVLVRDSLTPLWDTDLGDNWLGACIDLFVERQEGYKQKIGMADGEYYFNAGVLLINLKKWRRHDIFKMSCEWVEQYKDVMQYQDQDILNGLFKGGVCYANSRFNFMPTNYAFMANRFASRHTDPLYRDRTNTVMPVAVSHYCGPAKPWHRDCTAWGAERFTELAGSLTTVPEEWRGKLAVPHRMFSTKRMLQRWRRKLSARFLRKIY
As to the kind of experiment: Inhibition of Neisseria meningitidis LgtC at 50 uM using UDP-Gal donor substrate incubated for 20 mins by malachite green reagent based colorimetric method relative to control.

Experiment [2] concerns the target T1, LgtC (Neisseria meningitidis). The experiment is described as follows: (§1) Inhibition of Neisseria meningitidis LgtC using UDP-Gal donor substrate incubated for 20 mins by malachite green reagent based colorimetric method.
The nature of experiment [3]: Effect on inorganic phosphate reaction with malachite green reagent at 1 mM after 20 mins by colorimetric method. Format: functional.
Experiment [4] concerns the target Intestinal-type alkaline phosphatase (Bos taurus) (UniProt P19111). The experiment is described as follows: Inhibition of calf intestinal phosphatase up to 100 uM using UDP as substrate measured after 20 mins by malachite green reagent based colorimetric method.
Experiment [5] deals with T1, LgtC (Neisseria meningitidis). As to the kind of experiment: Inhibition of Neisseria meningitidis LgtC at 100 uM using UDP-Gal donor substrate incubated for 20 mins by malachite green reagent based colorimetric method relative to control.
Experiment [6] has the same target. As to the kind of experiment: Inhibition of Neisseria meningitidis LgtC at 100 uM using UDP-Gal donor substrate incubated for 20 mins followed by 5 fold dilution by malachite green reagent based colorimetric method relative to control.
Another experiment has as its system Pasteurella multocida. As to the kind of experiment: Inhibition of recombinant Pasteurella multocida alpha-(2,3)-sialyltransferase expressed in Escherichia coli BL21 up to 100 uM using CMP-Neu5Ac donor substrate incubated for 20 mins by malachite reagent based colorimetric method.
The target of the next experiment is T2, LgtC (Neisseria meningitidis, UniProt Q93EK7).
T2 sequence (Q93EK7 whole entry): T1 sequence (whole entry)
Described as §1.

A short description of experiment [7]: Effect on inorganic phosphate reaction with malachite green reagent up to 100 uM after 20 mins by colorimetric method. Type of experiment: functional.
Experiment [8] deals with T3, Galactoside alpha-(1,2)-fucosyltransferase 2 (Homo sapiens) (UniProt Q10981).
T3 sequence (whole entry): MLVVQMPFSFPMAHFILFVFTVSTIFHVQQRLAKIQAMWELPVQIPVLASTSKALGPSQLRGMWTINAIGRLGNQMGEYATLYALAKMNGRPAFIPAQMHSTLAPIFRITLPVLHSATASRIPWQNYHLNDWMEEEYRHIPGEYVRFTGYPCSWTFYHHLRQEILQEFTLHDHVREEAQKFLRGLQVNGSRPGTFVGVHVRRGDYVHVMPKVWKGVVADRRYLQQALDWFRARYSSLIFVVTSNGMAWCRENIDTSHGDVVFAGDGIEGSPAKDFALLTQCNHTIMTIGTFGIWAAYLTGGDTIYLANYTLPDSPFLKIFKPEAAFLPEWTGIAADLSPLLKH
As to the kind of experiment: Inhibition of recombinant human C-terminal His6-tagged FUT2 (Ile35 to His343 residues) expressed in HEK293 cells at 100 uM using GDP-Fuc donor substrate measured after 20 mins by malachite green reagent based colorimetric method. Type of experiment: cell-based.

Chain of Intestinal-type alkaline phosphatase (Bos taurus) (P19111 20-506 limits assumed): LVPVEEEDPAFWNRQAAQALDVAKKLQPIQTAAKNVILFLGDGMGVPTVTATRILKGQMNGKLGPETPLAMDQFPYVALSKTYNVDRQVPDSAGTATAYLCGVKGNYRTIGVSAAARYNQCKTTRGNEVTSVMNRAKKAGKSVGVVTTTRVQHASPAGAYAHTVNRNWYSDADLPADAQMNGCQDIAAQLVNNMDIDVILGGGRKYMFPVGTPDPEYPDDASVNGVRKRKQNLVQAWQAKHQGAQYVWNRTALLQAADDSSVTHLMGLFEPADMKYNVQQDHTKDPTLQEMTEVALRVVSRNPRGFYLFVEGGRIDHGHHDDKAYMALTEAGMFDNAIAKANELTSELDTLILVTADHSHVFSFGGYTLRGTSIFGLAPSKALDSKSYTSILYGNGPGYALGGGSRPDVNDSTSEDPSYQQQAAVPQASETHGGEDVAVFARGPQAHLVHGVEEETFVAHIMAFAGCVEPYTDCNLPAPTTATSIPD

`CC(=O)O[C@H]1C[C@@H]2CC[C@@H]3[C@H](CC[C@@]4(C)[C@H]3C[C@H]([N+]3(C)CCCCC3)[C@@H]4OC(C)=O)[C@@]2(C)C[C@@H]1N1CCCCC1`: the inhibition was 34% in [1] and “Dose-dependent effect” in experiment [2]. Also, the result in [3] was Active. Further, the inhibition entry in [4] was “Active”.
Take `CC1=NN(c2ccccc2)C(=O)/C1=C\c1ccccc1C(F)(F)F`: the inhibition in experiment [5] and in experiment [6] was 60% throughout.
With `CC1=NN(c2ccccc2)C(=O)/C1=C\c1ccc(Cl)cc1`, the inhibition result in experiment [1] is “inactive”.
With `CC1=NN(c2ccccc2)C(=O)/C1=C\c1cccnc1`, the inhibition result in experiment [1] is “inactive”.
Same read-out and setting: under `CC1=NN(c2ccccc2)C(=O)/C1=C\c1cccc(OCc2ccccc2)c1` stands “inactive”; under `CC1=NN(c2ccccc2)C(=O)/C1=C\c1ccccc1O`, 10%.
Take `CC1=NN(c2ccccc2)C(=O)/C1=C\c1ccco1`: the inhibition entry in experiment [1] is “inactive”.
As for `CC1=NN(c2ccccc2)C(=O)/C1=C\c1cccc(C)c1`, the inhibition result in experiment [1] was “inactive”.
Consider `CC1=NN(c2ccccc2)C(=O)/C1=C\c1ccc(S(C)(=O)=O)cc1`, for which, in [1], the inhibition result was “inactive”.
As to `CC1=NN(c2ccccc2)C(=O)/C1=C\c1cccc([N+](=O)[O-])c1`, in [1], the inhibition entry was “inactive”.
On the same count and under the same terms, the result for `CC1=NN(c2ccccc2)C(=O)/C1=C\c1ccc(O)cc1` reads “inactive”; that for `CC1=NN(c2ccccc2)C(=O)/C1=C\c1ccc(C#N)cc1`, “inactive”; that for `CCOC(=O)c1cccc(N2N=C(C)/C(=C/c3ccncc3)C2=O)c1`, “inactive”.
On to `CCOC(=O)c1cccc(N2N=C(C)/C(=C/C3CCN(C(=O)OC(C)(C)C)CC3)C2=O)c1`, for which the inhibition result in [1] was “inactive”.
With `CC(=O)O[C@H]1C[C@@H]2CC[C@@H]3[C@H](CC[C@@]4(C)[C@H]3C[C@H]([N+]3(C)CCCCC3)[C@@H]4OC(C)=O)[C@@]2(C)C[C@@H]1[N+]1(C)CCCCC1`, the inhibition in [1] was 38%; in experiment [2] it was “Dose-dependent effect”. Moreover, the result in experiment [3] was Active. The inhibition entry in [4] was “Active”.
`CC1=NN(c2ccccc2)C(=O)/C1=C\c1ccncc1`: the inhibition result in experiment [1] is “inactive”.
Take `CC1=NN(c2ccccc2)C(=O)/C1=C\c1ccc(C)cc1`: in [1], the inhibition result is “inactive”.
As to `COc1ccc2occ(/C=C3\C(=O)N(c4cccc(C(=O)O)c4)N=C3C)c(=O)c2c1`, in experiment [1], the inhibition result was “inactive”.
With `COc1cc(/C=C2\C(=O)N(c3cccc(C(=O)O)c3)N=C2C)cc(OC)c1O`, the inhibition entry in experiment [1] was “inactive”.
Consider `CC1=NN(c2ccccc2)C(=O)/C1=C\c1cccc(O)c1`, for which the inhibition result in experiment [1] was “inactive”.
As for `CC1=NN(c2ccccc2)C(=O)/C1=C\c1ccccc1C`, the inhibition entry (with Pasteurella multocida; in experiment [4]) was “inactive” each time. The figures for the inhibition in experiment [1] and in experiment [2] were > 10% and “Dose-dependent effect”, respectively. In addition, the IC50 against LgtC is 30 µM. For the same molecule, the outcome in experiment [7] was inactive. Besides, in experiment [8], the inhibition result was “Active”.
Consider `CC1=NN(c2ccccc2)C(=O)/C1=C\c1cc(C(F)(F)F)ccc1C(F)(F)F`, for which the inhibition result in [1] was “inactive”.
As to `CC1=NN(c2ccccc2)C(=O)/C1=C\c1ccccc1Cl`, the inhibition in experiment [1] is > 10%. This molecule also came in with an IC50 at LgtC of 33 µM.

Broadly, the inhibition is the relative decrease from the control value, in per cent. For orientation: IC50 means the concentration at which inhibition is half-maximal. A high value points to weaker potency.
